We go through 79 compounds from PMC12040169 (PLOS Biology, 2025).

The first data set is described as follows: in vitro. Conditions: human, hela cells, % viability.
As to `CN(C)CCN(C)c1cc(-c2ccc(F)c(Cl)c2)nc2ccnn12` [CBK037230], the viability at 28.5 h, 10 µM amounted to 90.4%.

For the compound `CC(=O)N1CCCC(c2[nH]c3cccnc3c2CN(C)C)C1` (stereo not shown) [CBK283469], the viability at 28.5 h, 10 µM was 89.1%.

As to `CC(=O)c1ccc(-c2nc(-c3ccc(Cl)cc3)cnc2N)cc1` [CBK064097], the viability at 28.5 h, 10 µM was 89.6%.

On to `CCOC(=O)c1cn(CC)c2cc(N3CCSCC3)c(F)cc2c1=O` [CBK307143], for which the viability at 28.5 h, 10 µM worked out at 89.8%.

As for `CSCCCNC(=O)N1CCCC(CO)C1` (stereo not shown) [CBK156031], the viability at 28.5 h, 10 µM turned out to be 106%.

For the compound `Cc1c(Cl)cccc1S(=O)(=O)Nc1c(C(=O)O)[nH]c2ccccc12` [CBK049889], the viability at 28.5 h, 10 µM was determined as 86.5%.

Turning to `CC(=O)Nc1cccc(-c2cc(NCc3ccccc3)n3nccc3n2)c1` [CBK037153], the viability at 28.5 h, 10 µM stood at 97.2%.

`C=CCNC(=O)C[C@@H]1CCN(C(=O)c2cccnc2)C[C@@H]1CC` [CBK289142]: the viability at 28.5 h, 10 µM is 92.3%.

As to `O=C(C[C@@H]1CCNC[C@@H]1Cc1cc(-c2ccccc2)on1)Nc1cccc(O)c1` [CBK289149], the viability at 28.5 h, 10 µM stood at 102%.

As for `CCOc1ccc(NC(=O)N(Cc2ccccn2)CC2CCCO2)cc1` (stereo not shown) [CBK306847], the viability at 28.5 h, 10 µM amounted to 83.7%.

For `CN(C)c1ccccc1-c1cc(Nc2ccc(C(C)(C)C)cc2)ncn1` [CBK090872], the viability at 28.5 h, 10 µM is 95.4%.

Take `CN(CC(=O)N1CCCCCC1)S(=O)(=O)c1cc(Cl)ccc1Cl` [CBK091841]: the viability at 28.5 h, 10 µM came to 92.4%.

Regarding `CC(=O)Nc1ccc(F)c(NC(=O)NCC2CCOC2)c1` (stereo not shown) [CBK304388], the viability at 28.5 h, 10 µM stood at 107%.

In the case of `Cc1nn(Cc2ccc(C(=O)N3CCN(Cc4ccccc4)CC3)o2)c(C)c1Br` [CBK265796C], the viability at 28.5 h, 10 µM amounted to 88.8%.

For `Cc1cn(C(C)C(=O)N(C)C)nc1C1CCCCC1` (stereo not shown) [CBK016092], the viability at 28.5 h, 10 µM came to 113%.

For `c1ccc2oc([C@H]3CCN(C4CCOCC4)C3)nc2c1` [CBK289388], the viability at 28.5 h, 10 µM turned out to be 92.3%.

Regarding `CN(CCOc1ccccc1)c1nccnc1N1CCNCC1` [CBK000035F], the viability at 28.5 h, 10 µM is 109%.

As for `CCCNCCc1ccc2c(c1)C(=O)N(Cc1ccc(OC)cc1)C2=O` [CBK011826C], the viability at 28.5 h, 10 µM worked out at 87.3%.

Regarding `O=C(CCCc1c[nH]c2ccccc12)N1CCn2c(nnc2C2CC2)C1` [CBK283689], the viability at 28.5 h, 10 µM came out at 96.6%.

With `COc1ccc(C(=O)N2CCC(Cc3ccccc3)CC2)cc1` [CBK074337], the viability at 28.5 h, 10 µM was 95.8%.

For the compound `O=C(CSc1nnc(-c2cccnc2)s1)Nc1ccc([N+](=O)[O-])cc1` [CBK268777], the viability at 28.5 h, 10 µM was 112%.

Take `OC1(c2nnsc2-c2ccccc2)CCCC1` [CBK007956]: the viability at 28.5 h, 10 µM was 90.2%.

With `COc1cc(C=CC(=O)O)ccc1OCc1cn2cc(Cl)ccc2n1` [CBK296722], the viability at 28.5 h, 10 µM was found to be 99.1%.

As to `CC1Cc2cc(-c3cn4ccccc4n3)ccc2N1S(C)(=O)=O` (stereo not shown) [CBK285194], the viability at 28.5 h, 10 µM is 94.3%.

Regarding `COc1ccc(C(=O)Nc2ccc(S(=O)(=O)N3CCN(C)CC3)cc2)cc1[N+](=O)[O-]` [CBK268140], the viability at 28.5 h, 10 µM is 97%.

`NCC(=O)N(CCC1CCCC1)c1cccc2ccccc12` [CBK011922C]: the viability at 28.5 h, 10 µM is 88.2%.

`Cn1c(=O)c(C(=O)Nc2ccc(OCc3ccccc3F)cc2)nc2ccccc21` [CBK285820]: the viability at 28.5 h, 10 µM is 103%.

Consider `O=C(NCCN1CCC(O)(c2cccc(F)c2)CC1)C1CCCC1` [CBK283285], for which the viability at 28.5 h, 10 µM came out at 110%.

Turning to `O=C(c1ccccc1NS(=O)(=O)c1ccc(Br)cc1)N1CCOCC1` [CBK043340], the viability at 28.5 h, 10 µM amounted to 100%.

For `Nc1nnc(SCc2nc(=O)c3ccccc3[nH]2)s1` [CBK270059], the viability at 28.5 h, 10 µM is 92.2%.

Turning to `O=C(NCc1ccccn1)c1cc(-c2ccc(Cl)cc2)[nH]n1` [CBK116549], the viability at 28.5 h, 10 µM worked out at 99.5%.

With `CN(C)S(=O)(=O)N1CCC(C(=O)O)(c2ccccc2)CC1` [CBK286681], the viability at 28.5 h, 10 µM is 90.3%.

In the case of `CC1(C)O[C@@H]2O[C@@H](C(O)CNC(=O)c3ccccc3)[C@@H](O)[C@@H]2O1` (stereo partly shown) [CBK008736], the viability at 28.5 h, 10 µM was 87%.

With `CC(C)c1ccc(COc2nccnc2OC2CCN(CCCC#N)CC2)cc1` [CBK161576], the viability at 28.5 h, 10 µM was found to be 96.5%.

Take `O=c1[nH]c2cccc3c2n1C[C@H](NCCc1ccccc1)C3` [CBK016688C]: the viability at 28.5 h, 10 µM was 105%.

As to `COCC(C)NC(=O)c1cc2c(C)cc(C)cc2[nH]1` (stereo not shown) [CBK057591], the viability at 28.5 h, 10 µM worked out at 91.8%.

Consider `O=C(Nc1cccc2cc[nH]c12)c1cc(F)cc(Cl)c1` [CBK160075], for which the viability at 28.5 h, 10 µM is 88.8%.

Regarding `Cc1cccc([C@H]2CN(C(=O)C3CCCC3)[C@@H]3CCN(C4CCCC4)C[C@H]23)c1` [CBK285529], the viability at 28.5 h, 10 µM was found to be 118%.

On to `Cn1nc(C2CCCN(C(=O)C3CC3)C2)c2cccnc21` (stereo not shown) [CBK282654], for which the viability at 28.5 h, 10 µM amounted to 89.4%.

On to `COc1ccc(CN2CC=CC2C(=O)O)cc1Cn1cncn1` (stereo not shown) [CBK307524], for which the viability at 28.5 h, 10 µM is 76.2%.

As to `O=C(COc1ccc(S(=O)(=O)N2CCCC2)cc1Cl)NCc1ccccn1` [CBK268412], the viability at 28.5 h, 10 µM came out at 91.3%.

`C[C@@H]1C(=O)O[C@H]2[C@H]1CC[C@@]1(C)Cc3sc(NC(=O)CN(C)C)nc3[C@@H](C)[C@H]21` [CBK289431]: the viability at 28.5 h, 10 µM was determined as 87.3%.

Turning to `COc1ccccc1N(CC(O)CN1C(C)CCCC1C)S(=O)(=O)c1ccccc1` (stereo not shown) [CBK265585], the viability at 28.5 h, 10 µM was found to be 94.4%.

As to `COc1ccccc1-c1nc(C2CCCN2C(=O)N[C@@H](C)c2ccccc2)n2ccccc12` (stereo partly shown) [CBK046625], the viability at 28.5 h, 10 µM worked out at 109%.

On to `COc1cc(CNc2nn[nH]n2)ccc1OCc1ccc(F)cc1Cl` [CBK269536], for which the viability at 28.5 h, 10 µM came to 90.6%.

Turning to `Cc1cccc(N2CCOC3(CCCC3)C2)n1` [CBK304446], the viability at 28.5 h, 10 µM was 82.1%.

For the compound `O=C(OCc1ccccc1)N1CCC(c2nc3ccc(Br)cc3[nH]2)CC1` [CBK153849], the viability at 28.5 h, 10 µM was determined as 93.7%.

Consider `O=C(Nc1nccs1)c1cc(=O)c2ccccc2o1` [CBK287570], for which the viability at 28.5 h, 10 µM is 105%.

As to `CC(C)NC(=O)Cn1ccc2ccnc(-c3cccs3)c21` [CBK284732], the viability at 28.5 h, 10 µM turned out to be 91.3%.

With `O=C(CSc1nnc(-c2ccncc2)n1-c1ccc(Cl)cc1)Nc1ccccc1-c1ccccc1` [CBK266205], the viability at 28.5 h, 10 µM amounted to 104%.

As for `COc1ccc(-c2cc(C(F)(F)F)nc(S(=O)(=O)CCC(=O)Nc3ccc(C)cc3)n2)cc1` [CBK266235], the viability at 28.5 h, 10 µM is 105%.

On to `COCCNC(=O)c1cc(-c2cccc(N(C)C)c2)cnc1NCC1CC1` [CBK076288], for which the viability at 28.5 h, 10 µM turned out to be 93.9%.

Take `Cc1ccc(NC(=O)CC2SC(NC3CCCCC3)=NC2=O)c(C)c1` (stereo not shown) [CBK059500]: the viability at 28.5 h, 10 µM was determined as 87.9%.

With `Nc1ncnc2c1nc(Br)n2[C@H]1C[C@@H](O)[C@@H](CO)O1` [CBK201240], the viability at 28.5 h, 10 µM worked out at 103%.

For the compound `O=C(NC(c1ccccc1)c1cccnc1)C1CCN(C(=O)NC2CCCCC2)CC1` (stereo not shown) [CBK060378], the viability at 28.5 h, 10 µM is 84%.

On to `CCN(CC)CCNC(=O)N1CCN(c2ccccc2)CC1` [CBK155202], for which the viability at 28.5 h, 10 µM came out at 116%.

Consider `Cc1n[nH]c(O)c1C(c1ccc(OC(=O)c2ccccc2Cl)cc1)c1c(C)n[nH]c1O` [CBK264520], for which the viability at 28.5 h, 10 µM is 101%.

With `O=[N+]([O-])c1ccccc1S(=O)(=O)Nc1cc(C(F)(F)F)ccc1Cl` [CBK015721], the viability at 28.5 h, 10 µM came out at 93.3%.

With `CN(Cc1cnn(C)c1)C(=O)c1ccc(Cl)cc1Br` [CBK305404], the viability at 28.5 h, 10 µM is 93%.

Take `Cc1cc(Cl)cc(Cl)c1S(=O)(=O)Nc1nc(-c2cccnc2)cs1` [CBK200035]: the viability at 28.5 h, 10 µM stood at 105%.

For `CCOC(=O)C1CCCN(Cc2nc(-c3ccc(F)cc3F)oc2C)C1` (stereo not shown) [CBK306749], the viability at 28.5 h, 10 µM was determined as 94.3%.

As to `CC(=O)Nc1ccc(-c2nc3cc(-c4nc5ccc(NC(C)=O)cc5[nH]4)ccc3[nH]2)cc1` [CBK261165], the viability at 28.5 h, 10 µM was determined as 91.2%.

For `O=C1Nc2c(cnn2-c2ccccc2Cl)C2=NCCCN12` [CBK283331], the viability at 28.5 h, 10 µM amounted to 100%.

As to `COC(=O)c1cc(OC)c(OC)cc1NC(=O)C1CCC1C(=O)O` (stereo not shown) [CBK057084], the viability at 28.5 h, 10 µM worked out at 82.5%.

In the case of `COc1ccc(C(=O)CCC(=O)Nc2cccnc2)c(OC)c1` [CBK266923], the viability at 28.5 h, 10 µM is 105%.

Turning to `O=C(NC1CCCCC1)[C@@H]1C=CCN1C(=O)c1cccs1` [CBK284338], the viability at 28.5 h, 10 µM is 95.8%.

For the compound `CC[C@H](Cn1ncc2ccccc2c1=O)NC(=O)c1ccc2c(c1)Sc1ccccc1O2` [CBK286173], the viability at 28.5 h, 10 µM was found to be 81.3%.

In the case of `Cc1ccc2c(c1)OC(C)(C)CC2NC(=O)C1CCN(C)CC1` (stereo not shown) [CBK307626], the viability at 28.5 h, 10 µM worked out at 110%.

Take `COCCNc1cc(-c2ccc(NC(C)=O)cc2)ncn1` [CBK090799]: the viability at 28.5 h, 10 µM was 97.8%.

Take `COc1ccc(Cl)cc1NC(=O)CCSc1ccccc1` [CBK263969]: the viability at 28.5 h, 10 µM is 85%.

On to `O=C(COc1ccc2ccccc2c1Br)Nc1ccc(S(=O)(=O)N2CCCC2)cc1` [CBK264135], for which the viability at 28.5 h, 10 µM stood at 99.3%.

Turning to `CS(=O)(=O)c1ccc(Cn2ccnc(N3CCN(C(=O)c4ccc5occc5c4)CC3)c2=O)cc1` [CBK153777], the viability at 28.5 h, 10 µM turned out to be 90.8%.

`Cc1cn(CC(=O)N2CCCC3(CCN(C(=O)c4ccoc4)C3)C2)c(=O)[nH]c1=O` (stereo not shown) [CBK131634]: the viability at 28.5 h, 10 µM amounted to 104%.

For `O=[N+]([O-])c1ccc(-c2csc(Nc3ccc4c(c3)OCO4)n2)cc1` [CBK262448B], the viability at 28.5 h, 10 µM stood at 100%.

Turning to `CC(=O)NCCSc1cc(NC(C)C)ncn1` [CBK105293], the viability at 28.5 h, 10 µM is 96.8%.

Regarding `CC(O)CNC(=O)C1(c2ccccc2)CCCC1` (stereo not shown) [CBK149542], the viability at 28.5 h, 10 µM is 96%.

The same data set, now with this note: human, hela cells, % viability, bulk resorufin, single well.
On to `O=C(O)Cn1cc(C(=O)c2ccccc2F)c2ccccc21` [CBK287100], for which the viability at 28.5 h, 10 µM is 92.7%.

As for `CCOc1cc(/C=C2/C(=O)NC(=S)N(c3ccccc3CC)C2=O)ccc1OC(C)C(=O)O` (stereo not shown) [CBK264460], the viability at 28.5 h, 10 µM came out at 97.8%.

Consider `CC(=O)Nc1ccc(OC(=O)N2CCCCC2)cc1` [CBK090124], for which the viability at 28.5 h, 10 µM amounted to 99.1%.
